From patent US11224601B1, “Compounds that inhibits MCL-1 protein” (priority 2017, dated 2022)
Where two headings read alike, the source gives them in different places.

What was measured:
[1] = system: OPM-2 human multiple myeloma cell line; assay: Cell Viability Assay (OPM-2 10 FBS), CellTiter-Glo; type: cell-based
How it was run: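 OPM-2 myeloma cells seeded at 3000 cells/well in RPMI 1640 with 10% FBS and exposed to serially diluted compounds for 16 h at 37° C., 5% CO2.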

OPM-2 Luc cells [2] = assay: Tumor Pharmacodynamics (PD) model; type: in vivo; conditions: dosed orally to female athymic nude mice inoculated with OPM-2 Luc cells; compared with Reference Compound 1
Text: Tumor Pharmacodynamics (PD)
FIGS. 1-7 illustrate the PD results of the cited Examples. The Reference Compound 1, an internal Amgen MC1-1 inhibitor compound made by one of the general schemes outlined in U.S. Pat. No. 9,562,061, herein incorporated by reference, is (1S,3′R,6′R,7′S,8′E,12′R)-6-chloro-12′-ethyl-7′-methoxy-3,4-dihydro-2H,15′H-spiro[naphthalene-1,22′-[20]oxa[13]thia[1,14]diazatetracyclo[14.7.2.0˜3,6˜.0˜19,24˜]pentacosa[8,16,18,24]tetraen]-15′-one 13′,13′-dioxide

[3] = target: recombinant human Mcl-1 (Mcl-1/Bim interaction) (Homo sapiens (Human), UniProt Q07820); assay: biochemical; type: binding; conditions: cell free Mcl-1:Bim TR-FRET
Procedure: Cell free Mcl-1:Bim Affinity Assay (Mcl-1 HTRF)
The inhibition of the Mcl-1/Bim interaction was measured using a time-resolved fluorescence resonance energy transfer (TR-FRET) assay. The recombinant human Mcl-1 (C-terminally 6×His tagged Mcl-1 containing residues 171-327) was generated at Amgen Inc (Thousand Oaks, Calif.). A biotinylated peptide derived from human Bim (residues 51-76) was purchased from CPC Scientific (San Jose, Calif.). The TR-FRET assay was conducted in a 384-well white OptiPlate™ (PerkinElmer, Waltham, Mass.) in a total volume of 40 μL. The reaction mixture contained 0.1 nM Mcl-1(171-327), 0.05 nM biotin-Bim(51-76), 0.05 nM LANCE® Eu-W1024 Anti-6×His (PerkinElmer), 0.072 nM Streptavidin-Xlent (Cisbio, Bedford, Mass.), and serially diluted test compounds in the binding buffer of 20 mM Hepes, pH 7.5, 150 mM NaCl, 0.016 mM Brij® 35, and 1 mM dithiothreitol. Test compounds were pre-incubated with Mcl-1(171-327) and biotin-Bim (51-76) for 60 min before addition of the detection mixture (LANCE® Eu-W1024 Anti-6×His and Streptavidin-Xlent). The reaction plates were further incubated overnight and then were read on an Envision® multimode reader (PerkinElmer). Fluorescence signals were measured at 620 nm (40-nm bandwidth) and 665 nm (7.5-nm bandwidth) with a 60 μs delay after excitation at 320 nm (75-nm bandwidth). The signal ratio at 665/620 nm corresponded to the Mcl-1/Bim interaction and was used in all data analyses. The IC50 values of test compounds were determined from duplicate data by analyzing competition curves using a four-parameter sigmoidal model in GraphPad Prism (GraphPad Software, San Diego, Calif.) or in Genedata Screener® (Genedata, Basel, Switzerland).

OPM-2 Luc cells [4] = assay: OPM-2 xenograft efficacy model; type: in vivo; conditions: dosed orally to female athymic nude mice inoculated with OPM-2 Luc cells
[5] = Homo sapiens, OPM-2, 16 h, read-out: OPM-2 10% FBS IC50 IP (μM), OPM-2 cells, 10% FBS, 16 h, CellTiter-Glo
[6] = Homo sapiens, OPM-2, 16 h, read-out: OPM-2 10% FBS IC50 IP, OPM-2 cells, 10% FBS, 16 h, CellTiter-Glo
[7] = read-out: OPM-2 10% FBS IC50 IP, OPM-2 cells, 10% FBS, 16 h, CellTiter-Glo

Sequence of recombinant human Mcl-1 (Mcl-1/Bim interaction) (Q07820 171-327): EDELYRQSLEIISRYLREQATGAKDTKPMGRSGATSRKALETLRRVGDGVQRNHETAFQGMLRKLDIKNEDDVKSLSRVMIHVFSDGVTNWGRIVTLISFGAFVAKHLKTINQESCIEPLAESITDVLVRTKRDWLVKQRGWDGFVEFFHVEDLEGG

Row | Molecule | IC50 [1, 5] | in vivo efficacy in a tumor PD model relative to Reference Compound 1 (OPM-2 Luc cells [2]) | IC50 ([3]; read-out: Mcl-1 HTRF IC50) | IC50 ([3]; read-out: Mel-1 HTRF IC50) | further results
1 | CCO[C@]1(CN2CCN3CCOC[C@@H]3C2)/C=C/C[C@H](C)[C@@H](C)S(=O)(=O)NC(=O)c2ccc3c(c2)N(C[C@@H]2CC[C@H]21)C[C@@]1(CCCc2cc(Cl)ccc21)CO3 [Example 1, (1S,3′R,6′R,7′R,8′E,11′S,12′R)-6-chloro-7′-ethoxy-7′-((9aS)-hexahydropyrazino[2,1-c][1,4]oxazin-8(1H)-ylmethyl)-11′,12′-dimethyl-3,4-dihydro-2H,15′H-spiro[naphthalene-1,22′-[20]oxa[13]thia[1,14]diazatetracyclo[14.7.2.0˜3,6˜.0˜19,24˜]pentacosa[8,16,18,24]tetraen]-15′-one 13′,13′-dioxide] | 0.085 µM | superior in vivo efficacy | – | – | –
2 | CCO[C@]1(CN2CCN(C3COC3)CC2)/C=C/C[C@H](C)[C@@H](C)S(=O)(=O)NC(=O)c2ccc3c(c2)N(C[C@@H]2CC[C@H]21)C[C@@]1(CCCc2cc(Cl)ccc21)CO3 [Example 2, (1S,3′R,6′R,7′R,8′E,11′S,12′R)-6-chloro-7′-ethoxy-11′,12′-dimethyl-7′-((4-(3-oxetanyl)-1-piperazinyl)methyl)-3,4-dihydro-2H,15′H-spiro[naphthalene-1,22′-[20]oxa[13]thia[1,14]diazatetracyclo[14.7.2.0˜3,6˜.0˜19,24˜]pentacosa[8,16,18,24]tetraen]-15′-one 13′,13′-dioxide] | – | superior in vivo efficacy | 0.109 nM | – | –
3 | CO[C@]1(CN2CCN(C3COC3)CC2)/C=C/C[C@H](C)[C@@H](C)S(=O)(=O)NC(=O)c2ccc3c(c2)N(C[C@@H]2CC[C@H]21)C[C@@]1(CCCc2cc(Cl)ccc21)CO3 [Example 3, (1S,3′R,6′R,7′R,8′E,11′S,12′R)-6-chloro-7′-methoxy-11′,12′-dimethyl-7′-((4-(3-oxetanyl)-1-piperazinyl)methyl)-3,4-dihydro-2H,15′H-spiro[naphthalene-1,22′-[20]oxa[13]thia[1,14]diazatetracyclo[14.7.2.0˜3,6˜.0˜19,24˜]pentacosa[8,16,18,24]tetraen]-15′-one 13′,13′-dioxide] | 0.06 µM | superior in vivo efficacy | – | – | –
4 | CO[C@]1(CN2CCN3CCOC[C@@H]3C2)/C=C/C[C@H](C)[C@@H](C)S(=O)(=O)NC(=O)c2ccc3c(c2)N(C[C@@H]2CC[C@H]21)C[C@@]1(CCCc2cc(Cl)ccc21)CO3 [Example 4, (1S,3′R,6′R,7′R,8′E,11′S,12′R)-6-chloro-7′-((9aS)-hexahydropyrazino[2,1-c][1,4]oxazin-8(1H)-ylmethyl)-7′-methoxy-11′,12′-dimethyl-3,4-dihydro-2H,15′H-spiro[naphthalene-1,22′-[20]oxa[13]thia[1,14]diazatetracyclo[14.7.2.0˜3,6˜.0˜19,24˜]pentacosa[8,16,18,24]tetraen]-15′-one 13′,13′-dioxide] | 0.094 µM | superior in vivo efficacy | – | – | –
5 | CCO[C@]1(CN2CCN3CCOC[C@@H]3C2)/C=C/C[C@H](C)[C@@H](CCOC)S(=O)(=O)NC(=O)c2ccc3c(c2)N(C[C@@H]2CC[C@H]21)C[C@@]1(CCCc2cc(Cl)ccc21)CO3 [Example 13, (1S,3′R,6′R,7′R,8′E,11′S,12′R)-6-chloro-7′-ethoxy-7′-((9aS)-hexahydropyrazino[2,1-c][1,4]oxazin-8(1H)-ylmethyl)-12′-(2-methoxyethyl)-11′-methyl-3,4-dihydro-2H,15′H-spiro[naphthalene-1,22′-[20]oxa[13]thia[1,14]diazatetracyclo[14.7.2.0˜3,6˜.0˜19,24˜]pentacosa[8,16,18,24]tetraen]-15′-one 13′,13′-dioxide] | – | superior in vivo efficacy | 0.094 nM | – | in vivo efficacy in an OPM-2 xenograft efficacy model (OPM-2 Luc cells [4]): in vivo efficacy
6 | CCO[C@]1(CN2CCN(C3COC3)CC2)/C=C/C[C@H](C)[C@@H](CCOC)S(=O)(=O)NC(=O)c2ccc3c(c2)N(C[C@@H]2CC[C@H]21)C[C@@]1(CCCc2cc(Cl)ccc21)CO3 [Example 14, (1S,3′R,6′R,7′R,8′E,11′S,12′R)-6-chloro-7′-ethoxy-12′-(2-methoxyethyl)-11′-methyl-7′-((4-(3-oxetanyl)-1-piperazinyl)methyl)-3,4-dihydro-2H,15′H-spiro[naphthalene-1,22′-[20]oxa[13]thia[1,14]diazatetracyclo[14.7.2.0˜3,6˜.0˜19,24˜]pentacosa[8,16,18,24]tetraen]-15′-one 13′,13′-dioxide] | – | superior in vivo efficacy | 0.08 nM | – | –
7 | CO[C@@]1(CN2CCN3CCOC[C@@H]3C2)/C=C/C[C@H](C)[C@@H](C)S(=O)(=O)NC(=O)c2ccc3c(n2)N(C[C@@H]2CC[C@H]21)C[C@@]1(CCCc2cc(Cl)ccc21)CO3 [Example 18, (1S,3′R,6′R,7′S,8′E,11′S,12′R)-6-chloro-7′-((9aS)-hexahydropyrazino[2,1-c][1,4]oxazin-8(1H)-ylmethyl)-7′-methoxy-11′,12′-dimethyl-3,4-dihydro-2H,15′H-spiro[naphthalene-1,22′-[20]oxa[13]thia[1,14,25]triazatetracyclo[14.7.2.0˜3,6˜.0˜19,24˜]pentacosa[8,16,18,24]tetraen]-15′-one 13′,13′-dioxide] | 0.022 µM | superior in vivo efficacy | 0.06 nM | – | in vivo efficacy in an OPM-2 xenograft efficacy model (OPM-2 Luc cells [4]): in vivo efficacy
8 | CO[C@@]1(C#CCCN2CCS(=O)(=O)CC2)/C=C/C[C@H](C)[C@@H](C)S(=O)(=O)NC(=O)c2ccc3c(c2)N(C[C@@H]2CC[C@H]21)C[C@@]1(CCCc2cc(Cl)ccc21)CO3 [Example 100456, (1S,3′R,6′R,7′S,8′E,11′S,12′R)-6-chloro-7′-(4-(1,1-dioxido-4-thiomorpholinyl)-1-butyn-1-yl)-7′-methoxy-11′,12′-dimethyl-3,4-dihydro-2H,15′H-spiro[naphthalene-1,22′-[20]oxa[13]thia[1,14]diazatetracyclo [14.7.2.0~3,6~.0~19,24~]pentacosa[8,16,18,24]tetraen]-15′-one 13′,13′-dioxide] | – | – | – | 0.565 nM | IC50 [1, 6]: 1.23 µM
9 | CO[C@@]1(C#CCCc2ccncn2)/C=C/C[C@H](C)[C@@H](C)S(=O)(=O)NC(=O)c2ccc3c(c2)N(C[C@@H]2CC[C@H]21)C[C@@]1(CCCc2cc(Cl)ccc21)CO3 [Example 100519, (1S,3′R,6′R,7′S,8′E,11′S,12′R)-6-chloro-7′-methoxy-11′,12′-dimethyl-7′-(4-(4-pyrimidinyl)-1-butyn-1-yl)-3,4-dihydro-2H,15′H-spiro[naphthalene-1,22′-[20]oxa[13]thia[1,14]diazatetracyclo [14.7.2.0~3,6~.0~19,24~]pentacosa[8,16,18,24]tetraen]-15′-one 13′,13′-dioxide] | – | – | – | 0.175 nM | IC50 [1, 6]: 0.138 µM
10 | CO[C@@]1(CC(=O)NC[C@@H](O)C(F)(F)F)/C=C/C[C@H](C)[C@@H](C)S(=O)(=O)NC(=O)c2ccc3c(c2)N(C[C@@H]2CC[C@H]21)C[C@@]1(CCCc2cc(Cl)ccc21)CO3.CO[C@@]1(CC(=O)NC[C@H](O)C(F)(F)F)/C=C/C[C@H](C)[C@@H](C)S(=O)(=O)NC(=O)c2ccc3c(c2)N(C[C@@H]2CC[C@H]21)C[C@@]1(CCCc2cc(Cl)ccc21)CO3 [Example 100563] | – | – | – | 0.065 nM | IC50 [1, 6]: 0.51 µM
11 | (1S,3′R,6′R,7′R,8′E,11′S,12′R)-6-chloro-7′-((9aS)-hexahydropyrazino[2,1-c][1,4]oxazin-8(1H)-ylmethyl)-7′-methoxy-12′-(2-methoxyethyl)-11′-methyl-3,4-dihydro-2H,15′H-spiro[naphthalene-1,22′-[20]oxa[13]thia[1,14]diazatetracyclo[14.7.2.0˜3,6˜.0˜19,24˜]pentacosa[8,16,18,24]tetraen]-15′-one 13,13′-dioxide [Example 11] | – | – | – | – | IC50 [1, 7]: 0.051 µM; in vivo efficacy in an OPM-2 xenograft efficacy model (OPM-2 Luc cells [4]): in vivo efficacy
12 | (1S,3′R,6′R,7′R,11′S,12′R)-6-chloro-7′- hydroxy-11′,12′-dimethyl-7′-(1-methyl-4- piperidinyl)-3,4-dihydro-2H,15′H- spiro[naphthalene-1,22′- [20]oxa[13]thia[1,14]diazatetracyclo [14.7.2.0~3,6~.0~19,24~]pentacosa[16,18,24] trien]-15′-one 13′,13′-dioxide [Example 100382] | – | – | – | 0.471 nM | IC50 [1, 7]: 0.312 µM
